Experimental data published in ChEMBL document CHEMBL5029172, “Neopentyl Glycol as a Scaffold to Provide Radiohalogenated Theranostic Pairs of High In Vivo Stability” (J Med Chem, 2021).

What was measured:
[1] = Metabolic stability in human liver microsomes assessed as retention time at […] measured after 5 mins by RP-HPLC; assay type: ADME, Microsome
[2] = Metabolic stability in mouse liver microsomes assessed as intact fractions at […] preincubated for 5 min measured by TLC followed by RP-HPLC; assay type: ADME, Microsome; details: read-out: Activity
[3] = Metabolic stability in human liver microsomes assessed as intact fractions at […] preincubated for 5 min measured by TLC followed by RP-HPLC; assay type: ADME, Microsome; details: read-out: Activity
[4] = Metabolic stability in mouse liver microsomes assessed as retention time at […] measured after 5 mins by RP-HPLC; assay type: ADME, Microsome
[5] = Biodistribution in ICR mouse assessed as blood clearance by measuring elimination rate at 7.4 kBq, iv upto 24 hrs; assay type: ADME, organism-based; details: in vivo
[6] = Stability of compound in presence of GSH measured upto 24 hrs by TLC radiochromatogram; assay type: physicochemical
[7] = Biodistribution in ICR mouse stomach at 7.4 kBq, iv upto 24 hrs; assay type: ADME, organism-based; details: in vivo
[8] = Drug metabolism in ICR mouse urine assessed as metabolite during retention time measured at 7.4 kBq, iv after 6 hrs by RP-HPLC followed by HILIC-HPLC analysis; assay type: ADME, organism-based
[9] = Biodistribution in ICR mouse neck at 7.4 kBq, iv upto 24 hrs; assay type: ADME, organism-based; details: in vivo
[10] = Metabolic stability in mouse liver microsomes assessed as intact fractions at 0.3 MBq preincubated for 5 min measured by TLC analysis; assay type: ADME, Microsome; details: read-out: Stability
[11] = Metabolic stability in human liver microsomes assessed as intact fractions at 0.3 MBq preincubated for 5 min measured by TLC analysis; assay type: ADME, Microsome; details: read-out: Stability

| Retention_time [1] [min] | remaining at 5 min [2] [%] | remaining at 5 min [3] [%] | Retention_time [4] [min] | CL [5] | Stability [6] | Drug uptake [7] | Drug excretion [8] | Drug uptake [9] | SMILES | remaining at 5 min, 0.3 MBq [10] [%] | Drug metabolism [8] | remaining at 5 min, 0.3 MBq [11] [%] |
| --- | --- | --- | --- | --- | --- | --- | --- | --- | --- | --- | --- | --- |
| < 0.2 | > 99.8 | > 99.8 | < 0.2 |  |  |  |  |  | CCC(C[125I])(CO[C@@H]1O[C@H](C(=O)O)[C@@H](O)[C@H](O)[C@H]1O)Cn1ccnc1[N+](=O)[O-] (stereo partly specified) |  |  |  |
| 16.5 | 2.2 | 1.5 | 52.6 | Not Active | Stable | Active | Active | Active | CCC(CC)(C[125I])Cn1ccnc1[N+](=O)[O-] |  |  |  |
| < 0.2 | > 99.8 | > 99.8 | < 0.2 | Active | Stable | Not Active |  | Not Active | O=[N+]([O-])c1nccn1CC(CO)(CO)C[125I] |  | Metabolite_Detected |  |
| < 0.2 | > 99.8 | > 99.8 | < 0.2 |  |  |  |  |  | O=C(O)[C@H]1O[C@@H](OCC(CO)(C[125I])Cn2ccnc2[N+](=O)[O-])[C@H](O)[C@@H](O)[C@@H]1O (stereo partly specified) |  |  |  |
| < 0.2 | 72 | > 99.8 | 23.5 | Active | Stable | Not Active | Active | Not Active | CCC(CO)(C[125I])Cn1ccnc1[N+](=O)[O-] (stereo unspecified) |  |  |  |
|  |  |  |  | Active |  | Not Active | Not Active | Not Active | O=C(NCCn1ccnc1[N+](=O)[O-])c1cccc([125I])c1 |  |  |  |

| SMILES | Retention_time [1] [min] | remaining at 5 min [2] [%] | remaining at 5 min [3] [%] | Retention_time [4] [min] | CL [5] | Stability [6] | Drug uptake [7] | Drug excretion [8] | Drug uptake [9] | remaining at 5 min, 0.3 MBq [10] [%] | Drug metabolism [8] | remaining at 5 min, 0.3 MBq [11] [%] |
| --- | --- | --- | --- | --- | --- | --- | --- | --- | --- | --- | --- | --- |
| O=[N+]([O-])c1nccn1CC(CO)(CO)C[211At] |  | 96.9 | 96.9 |  | Active | Stable | Not Active |  | Not Active | 96.9 | Metabolite_Detected | 96.9 |
| O=C(NCCn1ccnc1[N+](=O)[O-])c1cccc([211At])c1 |  |  |  |  | Not Active |  | Active |  | Active |  |  |  |
